Experiments:
PC-3 = assay: NCI-60 one-dose SRB screen (Prostate Cancer); type: cell-based; conditions: Homo sapiens, single dose 10 µM, 48 h, read-out: Growth inhibition percent (GI %)
DU-145 = assay: NCI-60 one-dose SRB screen (Prostate Cancer); type: cell-based; conditions: Homo sapiens, single dose 10 µM, 48 h, read-out: Growth inhibition percent (GI %)
EKVX = assay: NCI-60 one-dose SRB screen (Non-Small Cell Lung Cancer); type: cell-based; conditions: Homo sapiens, single dose 10 µM, 48 h, read-out: Growth inhibition percent (GI %)
A549/ATCC = assay: as above; type: cell-based; conditions: Homo sapiens, single dose 10 µM, 48 h, read-out: Growth inhibition percent (GI %)
NCI-H522 = assay: as above; type: cell-based; conditions: Homo sapiens, single dose 10 µM, 48 h, read-out: Growth inhibition percent (GI %)
HOP-92 = assay: as above; type: cell-based; conditions: Homo sapiens, single dose 10 µM, 48 h, read-out: Growth inhibition percent (GI %)
NCI-H23 = assay: as above; type: cell-based; conditions: Homo sapiens, single dose 10 µM, 48 h, read-out: Growth inhibition percent (GI %)
NCI-H226 = assay: as above; type: cell-based; conditions: Homo sapiens, single dose 10 µM, 48 h, read-out: Growth inhibition percent (GI %)
HOP-62 = assay: as above; type: cell-based; conditions: Homo sapiens, single dose 10 µM, 48 h, read-out: Growth inhibition percent (GI %)
NCI-H322M = assay: as above; type: cell-based; conditions: Homo sapiens, single dose 10 µM, 48 h, read-out: Growth inhibition percent (GI %)
NCI-H460 = assay: as above; type: cell-based; conditions: Homo sapiens, single dose 10 µM, 48 h, read-out: Growth inhibition percent (GI %)
HT29 = assay: NCI-60 one-dose SRB screen (Colon Cancer); type: cell-based; conditions: Homo sapiens, HT-29, single dose 10 µM, 48 h, read-out: Growth inhibition percent (GI %)
HCC-2998 = assay: NCI-60 one-dose SRB screen (Colon Cancer); type: cell-based; conditions: Homo sapiens, single dose 10 µM, 48 h, read-out: Growth inhibition percent (GI %)
KM12 = assay: NCI-60 one-dose SRB screen (Colon Cancer); type: cell-based; conditions: Homo sapiens, single dose 10 µM, 48 h, read-out: Growth inhibition percent (GI %)
HCT-116 = assay: NCI-60 one-dose SRB screen (Colon Cancer); type: cell-based; conditions: Homo sapiens, single dose 10 µM, 48 h, read-out: Growth inhibition percent (GI %)
HCT-15 = assay: NCI-60 one-dose SRB screen (Colon Cancer); type: cell-based; conditions: Homo sapiens, single dose 10 µM, 48 h, read-out: Growth inhibition percent (GI %)
COLO 205 = assay: NCI-60 one-dose SRB screen (Colon Cancer); type: cell-based; conditions: Homo sapiens, single dose 10 µM, 48 h, read-out: Growth inhibition percent (GI %)
SW-620 = assay: NCI-60 one-dose SRB screen (Colon Cancer); type: cell-based; conditions: Homo sapiens, single dose 10 µM, 48 h, read-out: Growth inhibition percent (GI %)
MDA-MB-435 = assay: NCI-60 one-dose SRB screen (Melanoma); type: cell-based; conditions: Homo sapiens, single dose 10 µM, 48 h, read-out: Growth inhibition percent (GI %)
UACC-257 = assay: NCI-60 one-dose SRB screen (Melanoma); type: cell-based; conditions: Homo sapiens, single dose 10 µM, 48 h, read-out: Growth inhibition percent (GI %)
SK-MEL-5 = assay: NCI-60 one-dose SRB screen (Melanoma); type: cell-based; conditions: Homo sapiens, single dose 10 µM, 48 h, read-out: Growth inhibition percent (GI %)
SK-MEL-2 = assay: NCI-60 one-dose SRB screen (Melanoma); type: cell-based; conditions: Homo sapiens, single dose 10 µM, 48 h, read-out: Growth inhibition percent (GI %)
SK-MEL-28 = assay: NCI-60 one-dose SRB screen (Melanoma); type: cell-based; conditions: Homo sapiens, single dose 10 µM, 48 h, read-out: Growth inhibition percent (GI %)
MALME-3M = assay: NCI-60 one-dose SRB screen (Melanoma); type: cell-based; conditions: Homo sapiens, single dose 10 µM, 48 h, read-out: Growth inhibition percent (GI %)
LOX IMVI = assay: NCI-60 one-dose SRB screen (Melanoma); type: cell-based; conditions: Homo sapiens, single dose 10 µM, 48 h, read-out: Growth inhibition percent (GI %)
M14 = assay: NCI-60 one-dose SRB screen (Melanoma); type: cell-based; conditions: Homo sapiens, single dose 10 µM, 48 h, read-out: Growth inhibition percent (GI %)
CAKI-1 = assay: NCI-60 one-dose SRB screen (Renal Cancer); type: cell-based; conditions: Homo sapiens, single dose 10 µM, 48 h, read-out: Growth inhibition percent (GI %)
SN12C = assay: NCI-60 one-dose SRB screen (Renal Cancer); type: cell-based; conditions: Homo sapiens, single dose 10 µM, 48 h, read-out: Growth inhibition percent (GI %)
UO-31 = assay: NCI-60 one-dose SRB screen (Renal Cancer); type: cell-based; conditions: Homo sapiens, single dose 10 µM, 48 h, read-out: Growth inhibition percent (GI %)
786-0 = assay: NCI-60 one-dose SRB screen (Renal Cancer); type: cell-based; conditions: Homo sapiens, single dose 10 µM, 48 h, read-out: Growth inhibition percent (GI %)
RXF 393 = assay: NCI-60 one-dose SRB screen (Renal Cancer); type: cell-based; conditions: Homo sapiens, single dose 10 µM, 48 h, read-out: Growth inhibition percent (GI %)
TK-10 = assay: NCI-60 one-dose SRB screen (Renal Cancer); type: cell-based; conditions: Homo sapiens, single dose 10 µM, 48 h, read-out: Growth inhibition percent (GI %)
ACHN = assay: NCI-60 one-dose SRB screen (Renal Cancer); type: cell-based; conditions: Homo sapiens, single dose 10 µM, 48 h, read-out: Growth inhibition percent (GI %)
A498 = assay: NCI-60 one-dose SRB screen (Renal Cancer); type: cell-based; conditions: Homo sapiens, single dose 10 µM, 48 h, read-out: Growth inhibition percent (GI %)
SF-539 = assay: NCI-60 one-dose SRB screen (CNS Cancer); type: cell-based; conditions: Homo sapiens, single dose 10 µM, 48 h, read-out: Growth inhibition percent (GI %)
U251 = assay: NCI-60 one-dose SRB screen (CNS Cancer); type: cell-based; conditions: Homo sapiens, U-251, single dose 10 µM, 48 h, read-out: Growth inhibition percent (GI %)
SNB-75 = assay: NCI-60 one-dose SRB screen (CNS Cancer); type: cell-based; conditions: Homo sapiens, single dose 10 µM, 48 h, read-out: Growth inhibition percent (GI %)
SF-295 = assay: NCI-60 one-dose SRB screen (CNS Cancer); type: cell-based; conditions: Homo sapiens, single dose 10 µM, 48 h, read-out: Growth inhibition percent (GI %)
SNB-19 = assay: NCI-60 one-dose SRB screen (CNS Cancer); type: cell-based; conditions: Homo sapiens, single dose 10 µM, 48 h, read-out: Growth inhibition percent (GI %)
SF-268 = assay: NCI-60 one-dose SRB screen (CNS Cancer); type: cell-based; conditions: Homo sapiens, single dose 10 µM, 48 h, read-out: Growth inhibition percent (GI %)
OVCAR-4 = assay: NCI-60 one-dose SRB screen (Ovarian cancer); type: cell-based; conditions: Homo sapiens, single dose 10 µM, 48 h, read-out: Growth inhibition percent (GI %)
OVCAR-3 = assay: NCI-60 one-dose SRB screen (Ovarian cancer); type: cell-based; conditions: Homo sapiens, single dose 10 µM, 48 h, read-out: Growth inhibition percent (GI %)
SK-OV-3 = assay: NCI-60 one-dose SRB screen (Ovarian cancer); type: cell-based; conditions: Homo sapiens, single dose 10 µM, 48 h, read-out: Growth inhibition percent (GI %)
NCI/ADR-RES = assay: NCI-60 one-dose SRB screen (Ovarian cancer); type: cell-based; conditions: Homo sapiens, single dose 10 µM, 48 h, read-out: Growth inhibition percent (GI %)
OVCAR-5 = assay: NCI-60 one-dose SRB screen (Ovarian cancer); type: cell-based; conditions: Homo sapiens, single dose 10 µM, 48 h, read-out: Growth inhibition percent (GI %)
OVCAR-8 = assay: NCI-60 one-dose SRB screen (Ovarian cancer); type: cell-based; conditions: Homo sapiens, single dose 10 µM, 48 h, read-out: Growth inhibition percent (GI %)
IGROV1 = assay: NCI-60 one-dose SRB screen (Ovarian cancer); type: cell-based; conditions: Homo sapiens, IGROV-1, single dose 10 µM, 48 h, read-out: Growth inhibition percent (GI %)
hCA XII = hCA XII (Homo sapiens, UniProt O43570); assay: CA inhibitory activity, spectrophotometric p-NPA assay; type: biochemical; conditions: p-NPA substrate, pH 7.5, 25 °C, triplicate; read-out: IC50 (µM) ± SD hCA XII
Chain of hCA XII (O43570 25-354): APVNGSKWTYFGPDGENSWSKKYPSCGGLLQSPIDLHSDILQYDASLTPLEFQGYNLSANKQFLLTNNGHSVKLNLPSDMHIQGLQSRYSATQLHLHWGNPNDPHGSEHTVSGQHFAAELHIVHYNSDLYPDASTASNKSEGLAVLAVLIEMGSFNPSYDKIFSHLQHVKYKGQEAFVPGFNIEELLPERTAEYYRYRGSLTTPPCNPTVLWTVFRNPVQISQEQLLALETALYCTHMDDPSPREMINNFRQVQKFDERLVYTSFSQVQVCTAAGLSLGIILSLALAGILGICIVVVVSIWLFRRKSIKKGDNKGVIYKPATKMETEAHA
Experimental: The software used to calculate CA IC50 along with statistical analysis of the results is GraphPad Prism 9.00. Results were estimated by using one-way ANOVA and the Bonferroni’s multiple comparisons posthoc test was performed (P < 0.05) [46]
Carbonic anhydrase inhibitory activity:
The spectrophotometric assay was conducted in HEPES-Tris buffer, NaCl of pH 7.5 (20mM) at 25◦C. Each inhibitory well-consisted of 50 μL of assay buffer solution, 20 μL of hCA enzyme solution (20 ng/μL in Assay Buffer), and 50 μL of test compound in HPLC grade DMSO (maintain 10% of the final concentration). The mixture solution was
Substrate p-nitrophenyl acetate (p-NPA) (0.7mM) was prepared in HPLC grade methanol and the reaction was started by adding 20 μL to a well in a 96-well-plate. The amount of product formed was measured for 30 min continuously at 1 min intervals at 400 nm in a 96-well-plate using xMARK microplate spectrophotometer, Bio-Rad (USA). The activity of the controlled compound was taken as 100%. All experiments were carried out in triplicates of each used concentration, and results are represented as a

## CCOC(=O)c1ccc(NC(=O)COC(=O)c2cn(-c3ccc(S(N)(=O)=O)cc3)nc2-c2ccc(Br)cc2)cc1 [Compound 5d, 2-[(4-(Ethoxycarbonyl)phenyl)amino]-2-oxoethyl 3-(4-bromophenyl)-1-(4-sulfamoylphenyl)-1H-pyrazole-4-carboxylate]
PC-3
  inhibition at 10 µM: 78.8%
DU-145
  inhibition at 10 µM: 45.8%
EKVX
  inhibition at 10 µM: 62.5%
A549/ATCC
  inhibition at 10 µM: 62.9%
NCI-H522
  inhibition at 10 µM: 64.9%
HOP-92
  inhibition at 10 µM: 72.1%
NCI-H23
  inhibition at 10 µM: 49.4%
NCI-H226
  inhibition at 10 µM: 48.3%
HOP-62
  inhibition at 10 µM: 26.2%
NCI-H322M
  inhibition at 10 µM: 21.2%
NCI-H460
  inhibition at 10 µM: 65.7%
HT29
  inhibition at 10 µM: 88.3%
HCC-2998
  inhibition at 10 µM: 54.3%
KM12
  inhibition at 10 µM: 76.7%
HCT-116
  inhibition at 10 µM: 73.6%
HCT-15
  inhibition at 10 µM: 76.4%
COLO 205
  inhibition at 10 µM: 61.2%
SW-620
  inhibition at 10 µM: 50.6%
MDA-MB-435
  inhibition at 10 µM: 61.2%
UACC-257
  inhibition at 10 µM: 38.3%
SK-MEL-5
  inhibition at 10 µM: 36.3%
SK-MEL-2
  inhibition at 10 µM: 49.1%
SK-MEL-28
  inhibition at 10 µM: 55.6%
MALME-3M
  inhibition at 10 µM: 46.1%
LOX IMVI
  inhibition at 10 µM: 72.9%
M14
  inhibition at 10 µM: 73.7%
CAKI-1
  inhibition at 10 µM: 81.9%
SN12C
  inhibition at 10 µM: 47.1%
UO-31
  inhibition at 10 µM: 58.9%
786-0
  inhibition at 10 µM: 74.9%
RXF 393
  inhibition at 10 µM: 82.8%
TK-10
  inhibition at 10 µM: 18.4%
ACHN
  inhibition at 10 µM: 66%
A498
  inhibition at 10 µM: 20.6%
SF-539
  inhibition at 10 µM: 63.3%
U251
  inhibition at 10 µM: 57.9%
SNB-75
  inhibition at 10 µM: 74.9%
SF-295
  inhibition at 10 µM: 57.5%
SNB-19
  inhibition at 10 µM: 57.9%
SF-268
  inhibition at 10 µM: 64.1%
OVCAR-4
  inhibition at 10 µM: 64%
OVCAR-3
  inhibition at 10 µM: 62.6%
SK-OV-3
  inhibition at 10 µM: 29%
NCI/ADR-RES
  inhibition at 10 µM: 28.2%
OVCAR-5
  inhibition at 10 µM: 38%
OVCAR-8
  inhibition at 10 µM: 13.3%
IGROV1
  inhibition at 10 µM: 31.7%
hCA XII
  IC50: 0.99 ± 0.037 µM
